Measurements from ChEMBL document CHEMBL4330132, “5-Keto-3-cyano-2,4-diaminothiophenes as selective maternal embryonic leucine zipper kinase inhibitors” (Bioorg Med Chem Lett, 2019).

How the values were obtained:
[1] = molecular target: Tyrosine-protein kinase HCK (Homo sapiens) (UniProt P08631); test: Binding affinity to wild-type human full length HCK (M22 to P526 residues) expressed in bacterial expression system assessed as residual binding level at 1 uM by Kinomescan method relative to control
[2] = molecular target: Rhodopsin kinase GRK7 (Homo sapiens) (UniProt Q8WTQ7); test: Binding affinity to wild-type human full length GRK7 (M1 to L553 residues) expressed in mammalian expression system assessed as residual binding level at 1 uM by Kinomescan method relative to control
[3] = tested on: Epidermal growth factor receptor (Homo sapiens), P00533 [L858R,T790M]; test: Binding affinity to human partial length EGFR L858R/T790M double mutant (R669 to V1011 residues) expressed in mammalian expression system assessed as residual binding level at 1 uM by Kinomescan method relative to control
[4] = molecular target: Protein kinase C theta type (Homo sapiens) (UniProt Q04759); test: Binding affinity to wild-type human partial length PRKCQ (L350 to S706 residues) expressed in bacterial expression system assessed as residual binding level at 1 uM by Kinomescan method relative to control
Protein kinase C theta type (Homo sapiens), sequence (Q04759 whole entry, looked up, the tested form may be a part): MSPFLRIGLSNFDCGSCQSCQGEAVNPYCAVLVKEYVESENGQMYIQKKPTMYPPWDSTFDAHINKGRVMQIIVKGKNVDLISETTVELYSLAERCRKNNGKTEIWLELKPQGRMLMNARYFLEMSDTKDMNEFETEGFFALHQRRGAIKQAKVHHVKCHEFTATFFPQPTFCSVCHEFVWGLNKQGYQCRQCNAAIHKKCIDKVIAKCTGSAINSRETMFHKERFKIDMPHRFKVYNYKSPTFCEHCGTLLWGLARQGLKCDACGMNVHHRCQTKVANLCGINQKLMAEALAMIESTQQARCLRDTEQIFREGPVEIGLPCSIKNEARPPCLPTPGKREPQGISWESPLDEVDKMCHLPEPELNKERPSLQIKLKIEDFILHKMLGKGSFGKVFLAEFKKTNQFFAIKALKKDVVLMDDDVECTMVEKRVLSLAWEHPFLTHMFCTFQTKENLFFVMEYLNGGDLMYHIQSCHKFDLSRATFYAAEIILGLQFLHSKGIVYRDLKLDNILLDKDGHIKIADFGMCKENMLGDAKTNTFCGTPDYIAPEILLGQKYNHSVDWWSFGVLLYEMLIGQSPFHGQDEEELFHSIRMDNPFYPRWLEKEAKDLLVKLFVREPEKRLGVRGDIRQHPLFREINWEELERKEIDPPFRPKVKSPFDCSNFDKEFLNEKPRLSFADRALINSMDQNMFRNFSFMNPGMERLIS

[5] = molecular target: Vascular endothelial growth factor receptor 3 (Homo sapiens) (UniProt P35916); test: Binding affinity to wild-type human partial length FLT4 (E821 to E1196 residues) expressed in bacterial expression system assessed as residual binding level at 1 uM by Kinomescan method relative to control
[6] = molecular target: Receptor-interacting serine/threonine-protein kinase 1 (Homo sapiens) (UniProt Q13546); test: Binding affinity to wild-type human partial length RIPK1 (M1 to K305 residues) expressed in bacterial expression system assessed as residual binding level at 1 uM by Kinomescan method relative to control
Receptor-interacting serine/threonine-protein kinase 1 (Homo sapiens), sequence (Q13546 whole entry, the tested form may be a part): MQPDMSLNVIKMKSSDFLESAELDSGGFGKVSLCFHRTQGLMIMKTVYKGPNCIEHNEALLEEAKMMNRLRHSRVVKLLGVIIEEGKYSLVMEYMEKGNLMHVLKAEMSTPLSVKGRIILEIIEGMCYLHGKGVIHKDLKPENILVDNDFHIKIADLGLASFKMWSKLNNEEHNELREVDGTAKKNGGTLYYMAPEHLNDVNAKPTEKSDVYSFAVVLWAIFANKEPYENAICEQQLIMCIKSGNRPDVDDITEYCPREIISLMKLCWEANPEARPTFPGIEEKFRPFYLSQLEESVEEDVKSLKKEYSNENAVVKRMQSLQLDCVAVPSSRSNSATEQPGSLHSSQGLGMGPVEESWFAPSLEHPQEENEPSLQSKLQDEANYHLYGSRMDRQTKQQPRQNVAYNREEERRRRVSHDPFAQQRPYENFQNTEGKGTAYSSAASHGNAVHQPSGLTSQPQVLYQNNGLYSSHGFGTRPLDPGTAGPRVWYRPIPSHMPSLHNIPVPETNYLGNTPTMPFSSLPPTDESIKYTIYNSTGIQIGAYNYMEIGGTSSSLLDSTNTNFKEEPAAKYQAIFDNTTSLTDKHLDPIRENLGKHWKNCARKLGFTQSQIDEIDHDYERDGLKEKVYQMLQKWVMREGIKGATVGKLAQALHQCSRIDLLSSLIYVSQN

[7] = molecular target: Dual specificity protein kinase TTK (Homo sapiens) (UniProt P33981); test: Binding affinity to wild-type human partial length TTK (N505 to V798 residues) expressed in bacterial expression system assessed as residual binding level at 1 uM by Kinomescan method relative to control
[8] = molecular target: Mitogen-activated protein kinase 12 (Homo sapiens) (UniProt P53778); test: Binding affinity to wild-type human full length p38-gamma (M1 to L367 residues) expressed in mammalian expression system assessed as residual binding level at 1 uM by Kinomescan method relative to control
[9] = molecular target: Mitogen-activated protein kinase kinase kinase 9 (Homo sapiens) (UniProt P80192); test: Binding affinity to wild-type human partial length MLK1 (V88 to W426 residues) expressed in bacterial expression system assessed as residual binding level at 1 uM by Kinomescan method relative to control
[10] = molecular target: Cyclin-dependent kinase 2 homolog (Plasmodium falciparum (isolate 3D7)) (UniProt P61075); test: Binding affinity to wild-type Plasmodium falciparum full length PK5 (M1 to N288 residues) expressed in mammalian expression system assessed as residual binding level at 1 uM by Kinomescan method relative to control
[11] = molecular target: Glycogen synthase kinase-3 beta (Homo sapiens) (UniProt P49841); test: Binding affinity to wild-type human full length GSK3B (M1 to T433 residues) expressed in mammalian expression system assessed as residual binding level at 1 uM by Kinomescan method relative to control
[12] = molecular target: Myosin light chain kinase family member 4 (Homo sapiens) (UniProt Q86YV6); test: Binding affinity to wild-type human partial length MYLK4 (V79 to S380 residues) expressed in bacterial expression system assessed as residual binding level at 1 uM by Kinomescan method relative to control
[13] = molecular target: Serine/threonine-protein kinase 4 (Homo sapiens) (UniProt Q13043); test: Binding affinity to wild-type human full length MST1 (M1 to F487 residues) expressed in bacterial expression system assessed as residual binding level at 1 uM by Kinomescan method relative to control
[14] = molecular target: Vascular endothelial growth factor receptor 2 (Homo sapiens) (UniProt P35968); test: Binding affinity to wild-type human partial length VEGFR2 (R787 to P1253 residues) expressed in mammalian expression system assessed as residual binding level at 1 uM by Kinomescan method relative to control
Vascular endothelial growth factor receptor 2 (Homo sapiens), sequence (P35968 whole entry, the tested form may be a part): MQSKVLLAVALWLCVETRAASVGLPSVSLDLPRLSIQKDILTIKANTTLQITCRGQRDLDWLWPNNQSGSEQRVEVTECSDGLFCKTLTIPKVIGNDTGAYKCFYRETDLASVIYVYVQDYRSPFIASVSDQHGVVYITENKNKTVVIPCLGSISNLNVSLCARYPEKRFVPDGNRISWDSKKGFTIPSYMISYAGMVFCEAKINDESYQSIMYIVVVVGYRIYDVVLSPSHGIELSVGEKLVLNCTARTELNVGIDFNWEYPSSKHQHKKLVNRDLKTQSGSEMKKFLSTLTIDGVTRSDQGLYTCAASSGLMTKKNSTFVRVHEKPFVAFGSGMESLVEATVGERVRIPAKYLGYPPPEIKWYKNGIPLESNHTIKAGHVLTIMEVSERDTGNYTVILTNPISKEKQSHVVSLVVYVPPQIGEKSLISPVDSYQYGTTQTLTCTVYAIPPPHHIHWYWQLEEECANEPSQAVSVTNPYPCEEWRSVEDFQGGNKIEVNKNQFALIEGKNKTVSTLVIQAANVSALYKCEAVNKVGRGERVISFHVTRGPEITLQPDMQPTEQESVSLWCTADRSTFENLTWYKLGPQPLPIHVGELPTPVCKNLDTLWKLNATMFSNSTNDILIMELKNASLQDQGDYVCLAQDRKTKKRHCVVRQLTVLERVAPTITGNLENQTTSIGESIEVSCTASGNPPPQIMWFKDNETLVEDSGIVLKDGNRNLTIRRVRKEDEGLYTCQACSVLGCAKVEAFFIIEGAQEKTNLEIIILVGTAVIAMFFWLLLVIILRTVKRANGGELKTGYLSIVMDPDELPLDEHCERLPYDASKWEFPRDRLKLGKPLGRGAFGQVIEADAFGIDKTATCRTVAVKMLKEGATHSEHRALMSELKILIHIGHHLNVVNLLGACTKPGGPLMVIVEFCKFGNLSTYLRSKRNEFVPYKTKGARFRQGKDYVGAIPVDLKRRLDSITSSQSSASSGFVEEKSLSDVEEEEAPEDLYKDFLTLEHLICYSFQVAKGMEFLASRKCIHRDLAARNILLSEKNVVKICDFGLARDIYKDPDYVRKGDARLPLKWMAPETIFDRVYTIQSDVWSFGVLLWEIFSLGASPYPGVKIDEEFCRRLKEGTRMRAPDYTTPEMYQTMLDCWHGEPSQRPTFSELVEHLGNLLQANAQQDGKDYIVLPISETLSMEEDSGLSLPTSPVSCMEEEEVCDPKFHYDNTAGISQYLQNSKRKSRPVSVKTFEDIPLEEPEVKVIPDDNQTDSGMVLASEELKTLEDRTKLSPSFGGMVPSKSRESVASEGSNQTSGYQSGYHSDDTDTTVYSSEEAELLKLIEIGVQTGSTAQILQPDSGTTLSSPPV

[15] = molecular target: Tyrosine-protein kinase Fgr (Homo sapiens) (UniProt P09769); test: Binding affinity to wild-type human partial length FGR (L233 to T529 residues) expressed in bacterial expression system assessed as residual binding level at 1 uM by Kinomescan method relative to control
[16] = molecular target: Serine/threonine-protein kinase TAO3 (Homo sapiens) (UniProt Q9H2K8); test: Binding affinity to wild-type human partial length TAOK3 (M1 to T316 residues) expressed in mammalian expression system assessed as residual binding level at 1 uM by Kinomescan method relative to control
[17] = molecular target: Rhodopsin kinase GRK1 (Homo sapiens) (UniProt Q15835); test: Binding affinity to wild-type human full length GRK1 (M1 to S563 residues) expressed in mammalian expression system assessed as residual binding level at 1 uM by Kinomescan method relative to control
Rhodopsin kinase GRK1 (Homo sapiens), sequence (Q15835 whole entry, the tested form may be a part): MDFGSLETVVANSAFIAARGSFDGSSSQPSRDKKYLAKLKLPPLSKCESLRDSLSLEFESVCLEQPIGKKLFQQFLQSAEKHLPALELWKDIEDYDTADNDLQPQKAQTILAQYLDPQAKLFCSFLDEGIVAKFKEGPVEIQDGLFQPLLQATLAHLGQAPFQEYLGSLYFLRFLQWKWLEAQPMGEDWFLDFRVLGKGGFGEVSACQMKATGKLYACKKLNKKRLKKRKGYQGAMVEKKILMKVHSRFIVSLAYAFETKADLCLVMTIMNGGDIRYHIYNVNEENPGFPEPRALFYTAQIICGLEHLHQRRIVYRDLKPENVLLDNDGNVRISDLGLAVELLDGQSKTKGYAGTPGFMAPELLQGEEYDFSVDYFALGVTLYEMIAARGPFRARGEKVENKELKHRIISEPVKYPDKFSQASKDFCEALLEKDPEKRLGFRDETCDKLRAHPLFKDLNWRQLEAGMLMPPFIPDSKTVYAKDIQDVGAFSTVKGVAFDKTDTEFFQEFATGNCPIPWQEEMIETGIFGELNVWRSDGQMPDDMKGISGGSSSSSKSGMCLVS

[18] = molecular target: Fibroblast growth factor receptor 3 (Homo sapiens) (UniProt P22607); test: Binding affinity to wild-type human partial length FGFR3 (R442 to S771 residues) expressed in bacterial expression system assessed as residual binding level at 1 uM by Kinomescan method relative to control
[19] = molecular target: Serine/threonine-protein kinase TBK1 (Homo sapiens) (UniProt Q9UHD2); test: Binding affinity to wild-type human full length TBK1 (M1 to L729 residues) expressed in mammalian expression system assessed as residual binding level at 1 uM by Kinomescan method relative to control
Serine/threonine-protein kinase TBK1 (Homo sapiens), sequence (Q9UHD2 whole entry, the tested form may be a part): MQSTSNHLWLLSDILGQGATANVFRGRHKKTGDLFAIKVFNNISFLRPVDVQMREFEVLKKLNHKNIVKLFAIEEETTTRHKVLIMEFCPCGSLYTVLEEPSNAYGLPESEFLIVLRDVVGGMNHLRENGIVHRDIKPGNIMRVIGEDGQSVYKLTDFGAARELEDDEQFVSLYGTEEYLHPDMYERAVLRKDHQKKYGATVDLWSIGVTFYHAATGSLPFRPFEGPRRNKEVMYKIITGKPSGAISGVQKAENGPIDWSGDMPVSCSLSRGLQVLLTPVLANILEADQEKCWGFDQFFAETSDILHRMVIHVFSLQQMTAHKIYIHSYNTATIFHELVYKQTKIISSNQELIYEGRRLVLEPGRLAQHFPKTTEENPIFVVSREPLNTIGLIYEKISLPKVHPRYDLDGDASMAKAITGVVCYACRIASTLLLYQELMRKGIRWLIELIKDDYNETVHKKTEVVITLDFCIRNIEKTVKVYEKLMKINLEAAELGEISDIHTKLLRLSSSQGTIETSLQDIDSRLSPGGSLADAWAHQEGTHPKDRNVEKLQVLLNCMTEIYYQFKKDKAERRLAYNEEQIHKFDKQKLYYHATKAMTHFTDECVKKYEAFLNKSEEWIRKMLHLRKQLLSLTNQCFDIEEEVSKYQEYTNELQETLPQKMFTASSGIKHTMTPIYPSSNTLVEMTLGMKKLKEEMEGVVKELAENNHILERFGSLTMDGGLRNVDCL

[20] = molecular target: Serine/threonine-protein kinase ULK1 (Homo sapiens) (UniProt O75385); test: Binding affinity to wild-type human partial length ULK1 (M1 to T309 residues) expressed in mammalian expression system assessed as residual binding level at 1 uM by Kinomescan method relative to control
[21] = molecular target: Receptor tyrosine-protein kinase erbB-3 (Homo sapiens) (UniProt P21860); test: Binding affinity to wild-type human partial length ERBB3 (G684 to A987 residues) expressed in mammalian expression system assessed as residual binding level at 1 uM by Kinomescan method relative to control
[22] = molecular target: Mitogen-activated protein kinase kinase kinase kinase 4 (Homo sapiens) (UniProt O95819); test: Binding affinity to wild-type human partial length MAP4K4 (M1 to R310 residues) expressed in bacterial expression system assessed as residual binding level at 1 uM by Kinomescan method relative to control
[23] = molecular target: Dual specificity protein kinase CLK1 (Homo sapiens) (UniProt P49759); test: Binding affinity to wild-type human full length CLK1 (M1 to I484 residues) expressed in bacterial expression system assessed as residual binding level at 1 uM by Kinomescan method relative to control
[24] = molecular target: Serine/threonine-protein kinase Nek4 (Homo sapiens) (UniProt P51957); test: Binding affinity to wild-type human full length NEK4 (M1 to F841 residues) expressed in mammalian expression system assessed as residual binding level at 1 uM by Kinomescan method relative to control
Serine/threonine-protein kinase Nek4 (Homo sapiens), sequence (P51957 whole entry, looked up, the tested form may be a part): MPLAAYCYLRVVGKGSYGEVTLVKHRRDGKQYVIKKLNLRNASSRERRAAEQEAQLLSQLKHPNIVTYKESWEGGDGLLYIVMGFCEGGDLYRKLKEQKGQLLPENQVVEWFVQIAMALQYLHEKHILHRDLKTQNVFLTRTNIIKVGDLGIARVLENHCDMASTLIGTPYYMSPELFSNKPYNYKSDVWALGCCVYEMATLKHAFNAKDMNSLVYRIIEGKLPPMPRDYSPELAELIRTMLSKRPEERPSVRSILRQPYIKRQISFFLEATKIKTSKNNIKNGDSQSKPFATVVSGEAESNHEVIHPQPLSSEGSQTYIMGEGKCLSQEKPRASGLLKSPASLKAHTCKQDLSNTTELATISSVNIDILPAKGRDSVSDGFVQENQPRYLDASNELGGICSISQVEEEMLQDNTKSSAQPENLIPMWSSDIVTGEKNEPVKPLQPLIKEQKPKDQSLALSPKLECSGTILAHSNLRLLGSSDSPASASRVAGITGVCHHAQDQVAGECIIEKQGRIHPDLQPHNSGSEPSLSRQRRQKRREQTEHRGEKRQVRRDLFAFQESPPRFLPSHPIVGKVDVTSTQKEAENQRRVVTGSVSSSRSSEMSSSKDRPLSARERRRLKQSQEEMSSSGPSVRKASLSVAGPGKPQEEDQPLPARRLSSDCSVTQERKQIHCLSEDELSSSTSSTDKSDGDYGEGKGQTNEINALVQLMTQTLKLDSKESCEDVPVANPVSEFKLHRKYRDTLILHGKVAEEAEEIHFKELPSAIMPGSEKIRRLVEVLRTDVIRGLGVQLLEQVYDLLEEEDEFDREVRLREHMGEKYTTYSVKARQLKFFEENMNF

[25] = molecular target: Aurora kinase C (Homo sapiens) (UniProt Q9UQB9); test: Binding affinity to wild-type human full length AURKC (M1 to S275 residues) expressed in bacterial expression system assessed as residual binding level at 1 uM by Kinomescan method relative to control

CC(C)Nc1sc(C(=O)c2ccc(Cl)s2)c(N)c1C#N
Activity [1]: 90% | Activity [2]: 95% | Activity [3]: 83% | Activity [4]: 57% | Activity [5]: 50% | Activity [6]: 100% | Activity [7]: 49% | Activity [8]: 100% | Activity [9]: 98% | Activity [10]: 94% | Activity [11]: 97% | Activity [12]: 96% | Activity [13]: 100% | Activity [14]: 93% | Activity [15]: 97% | Activity [16]: 100% | Activity [17]: 100% | Activity [18]: 100% | Activity [19]: 97% | Activity [20]: 92% | Activity [21]: 75% | Activity [22]: 46% | Activity [23]: 70% | Activity [24]: 80% | Activity [25]: 100%
